Test results published in patent US5130450A, “Platinum complexes” (Nippon Kayaku Kabushiki Kaisha, priority 1990, dated 1992).

Assays:
PC-3 cells = experiment: Growth inhibition of PC-3 cells derived from lung cancer, 72 h, methylene blue staining; assay type: cell-based
Experimental: (§1) After 24-hour incubation under the conditions of 37° C. and 5% CO2, 10 μl of the novel fat-soluble platinum complex was added in various concentrations and the PC-3 cells and SW-1116 cells were further cultured for 72 hours and 96 hours, respectively. Thereafter, the culture was drawn off from each well by using an aspirator, fixed with MeOH, then added with a 0.05% methylene blue/10 mM tris-(hydroxymethyl)aminomethanehydrochloric acid buffer solution (pH 8.5) at a rate of 100 μl/well and stained at room temperature for 30 minutes. Thereafter, each well was cleared of the staining solution by using an aspirator and washed three times with pure water. Then 3% hydrochloric acid solution was added at a rate of 200 μl/well, and after sealing, the culture was left at room temperature for about 24 hours and the pigment was extracted from the cells. The absorbance (A660) of each well at 660 nm was measured by a dynamic microplate reader, and the growth inhibition rate (%) at each concentration was calculated from the following equation. […] [formula]

SW-1116 cells = experiment: Growth inhibition of SW-1116 cells derived from colon cancer, 96 h, methylene blue staining; assay type: cell-based
Experimental: as §1

[1] = in words, prior art; cited from earlier work
[2] = in words, clinical use; cited from earlier work

Row | Compound | IC50 PC-3 (PC-3 cells) [µg/mL] | IC50 SW-1116 (SW-1116 cells) [µg/mL] | Solubility in water [mg/mL] | antitumor effect [1] | side effects [2]
1 | CC(C)(CO)C(=O)[O-].CC(C)(CO)C(=O)[O-].N[C@@H]1CCCC[C@H]1N.[Pt+2] (relative stereo) [compound No. 10, cis-Bis(3-hydroxy-2,2-dimethylpropionato)-trans-1,2-diaminocyclohexane platinum (II)] | 0.50 | 0.065 |  |  | 
2 | CC(C)(CO)C([O-])C(=O)[O-].C[C@@H](CN)CCN.[Pt+2] (stereo in doubt) [compound No. 21, cis-[2-(2-Hydroxy-1,1-dimethylethyl)-glycolato-O,O']-(R)-1,4-diamino-2-methylbutane platinum (II)] | 0.53 | 0.37 | > 100 |  | 
3 | N.N.[Cl][Pt][Cl] [cis-Platin, cis-dichlorodiammine platinum (II), reference compound] | 0.40 | 0.36 |  | very excellent antitumor effect | strong side effects such as renal toxicity and vomitting toxicity
4 | CC(C)(CO)C(O)C(=O)[O-].CC(C)(CO)C(O)C(=O)[O-].NC1CCCCC1N.[Pt+2] [compound No. 9, cis-Bis[(S)-2,4-dihydroxy-3,3-dimethylbutyrato]-trans-(R,R)-1,2-diaminocyclohexane platinum (II)] | 0.45 | 0.057 |  |  | 
5 | CC(O)(CCO)CC(=O)[O-].CC(O)(CCO)CC(=O)[O-].N.N.[Pt+2] (stereo not drawn) [compound No. 12, cis-Bis(3,5-dihydroxy-3-methylvalerato)-diammine platinum (II)] |  |  | > 100 |  | 
6 | CC(C)(CO)C(O)C(=O)[O-].CC(C)(CO)C(O)C(=O)[O-].CC(CN)CCN.[Pt+2] [compound No. 19, cis-Bis[(R)-2,4-dihydroxy-3,3-dimethylbutyrato]-(R)-1,4-diamino-2-methylbutane platinum (II)] | 0.40 | 0.36 |  |  | 
7 | cis-Bis[(R)-2,4-dihydroxy-3,3-dimethylbutyrato]-trans-(R,R)-1,2-diaminocyclohexane platinum (II) [compound No. 5] | 0.60 | 0.060 | > 100 |  | 
8 | cis-Bis[(R)-2,4-dihydroxy-3,3-dimethylbutyrato]diammine platinum (II) [compound No. 1] |  |  | > 100 |  | 

Second part, led by results:

Row | IC50 PC-3 (PC-3 cells) [µg/mL] | IC50 SW-1116 (SW-1116 cells) [µg/mL] | Solubility in water [mg/mL] | Compound | antitumor effect [1] | side effects [2]
9 | 1.57 | 0.21 |  | CC(C)(O)C(=O)[O-].CC(C)(O)C(=O)[O-].N[C@@H]1CCCC[C@H]1N.[Pt+2] (relative stereo) [compound No. 8, cis-Bis(2-hydroxy-2-methylpropionato)-trans-1,2-diaminocyclohexane platinum (II)] |  | 
10 | 0.76 | 0.085 |  | CC(O)(CCO)CC(=O)[O-].CC(O)(CCO)CC(=O)[O-].N[C@@H]1CCCC[C@H]1N.[Pt+2] (relative stereo) [compound No. 13, Cis-Bis(3,5-dihydroxy-3-methylvalerato)-trans-1,2-diaminocyclohexane platinum (II)] |  | 
11 | 0.60 | 0.082 |  | CC(C)(CO)[C@@H](O)C(=O)NCCC(=O)[O-].CC(C)(CO)[C@@H](O)C(=O)NCCC(=O)[O-].N[C@@H]1CCCC[C@H]1N.[Pt+2] (stereo in doubt) [compound No. 17, cis-Bis[(R)-pantothenato]-trans-(R,R)-1,2-diaminocyclohexane platinum (II)] |  | 
12 | 0.35 | 0.36 | > 20 | CC(C)(CO)C(=O)[O-].CC(C)(CO)C(=O)[O-].C[C@@H](CN)CCN.[Pt+2] (stereo in doubt) [compound No. 20, cis-Bis(3-hydroxy-2,2-dimethylpropionato)(R)-1,4-diamino-2-methylbutane platinum (II)] |  | 
13 | 0.73 | 0.37 | > 100 | CC(C)(CO)[C@@H](O)C(=O)[O-].CC(C)(CO)[C@@H](O)C(=O)[O-].NCC1(N)CCCCC1.[Pt+2] [compound No. 4, cis-Bis[(R)-2,4-dihydroxy-3,3-dimethylbutyrato]-1-amino-1-aminomethylcyclohexane platinum (II)] |  | 
14 | 0.80 | 0.14 | > 100 | CC(O)(CCO)CC(=O)[O-].CC(O)(CCO)CC(=O)[O-].NCC1(N)CCCCC1.[Pt+2] (stereo not drawn) [compound No. 15, cis-Bis(3,5-dihydroxy-3-methylvalerato)-1-amino-1-aminomethylcyclohexane platinum (II)] |  | 
15 | 2.03 | 0.25 |  | CC(C)(CO)C([O-])C(=O)[O-].NC1CCCCC1N.[Pt+2] (stereo not drawn) [compound No. 18, cis-[2-(2-Hydroxy-1,1-dimethylethyl)-glycolato-O,O']-trans-1,2-diaminocyclohexane platinum (II)] |  | 
